Experimental data taken from US20110269628A1, “Pesticidal Mixtures” (priority 2009, published 2011).

Experiments:
[1] = test system: Imidazolinone tolerant soybeans; test: Stomatal conductance gs (infrared gas analyzer), soybean pot experiment; type: in vivo; details: 1 DAA; application at BBCH 14; pyraclostrobin 0.3 L/ha (250 g/L), imazapyr 0.075 L/ha (480 g/L)
[2] = test system: Imidazolinone tolerant soybeans; test: Chlorophyll content (SPAD chlorophyll-meter), soybean pot experiment; type: in vivo; details: 1 DAA; application at BBCH 14; pyraclostrobin 0.6 L/ha (250 g/L), imazapyr 0.3 L/ha (480 g/L)

| SMILES | OE = observed efficacy (%), increase of stomatal conductance vs untreated control [1] [%] | SC = Stomatal Conductance (gs) [1] [mol m^−2s^−1] | Chlorophyll Content (SPAD) [2] | OE = observed efficacy (%), increase of chlorophyll content vs untreated control [2] [%] |
| --- | --- | --- | --- | --- |
| CC(C)C1(C)N=C(c2ncccc2C(=O)O)NC1=O (centres unmarked) [Imazapyr, imazapyr] | −3.1 | 0.380 | 26.5 | −1.5 |
| COC(=O)N(OC)c1ccccc1COc1ccn(-c2ccc(Cl)cc2)n1 [Pyraclostrobin, pyraclostrobin] | 7.4 | 0.421 | 27.6 | 2.6 |
